The record followed here is patent US20210395239A1 (Hoffmann-La Roche Inc., priority 2018, published 2021).

The target of one series is T1, CYP2C9 (Homo sapiens, UniProt P11712).
T1 construct: tissue BD-Gentest 452117; host or cells: human liver microsomes
Put plainly: CYP inhibition assay in human liver microsome, CYP2C9. Format: in vitro ADME. To be noted: human, human liver microsomes, probe diclofenac 5 μM, substrate diclofenac 5 μM, first value of 2C9/2D6/3A4. On the procedure:
This is a high throughput screening assay used for assessment of reversible inhibition of CYP2C9, CYP2D6, and CYP3A4 activity of test compounds in human liver microsome (HLM) in early discovery stage.
10 mM DMSO stock solutions of test compounds were diluted in DMSO to generate 2 mM intermediate stock solution. 250 nL, of intermediate stock solution were transferred in duplicate into 3 separate 384 well microtitre plates (assay-ready plates). A mixture of HLM and each substrate was made up. 45 μL of HLM substrate mix was then transferred to each well of an assay ready plate and mixed. The negative (solvent) and positive controls (standard inhibitor for each CYP) were included in each assay ready plate. The assay ready plate was warmed to 37° C. in an incubator over 10 minutes. 5 μL pre-warmed NADPH regenerating system was added to each incubation well to start the reaction. Final incubation volume was 50 μL. The assay plate then was placed back in the 37° C. incubator. After incubation (10 minutes for CYP2D6) for 5 minutes, incubates were quenched by addition of 50 μL 100% acetonitrile containing internal standards (400 ng/mL 13C6-4′-OH-Diclofenac, 20 ng/mL D3-Dextrorphan and 20 ng/mL D4-1′OH-Midazolam). The supernatants were collected for RapidFire/MS/MS analysis.
RapidFire online solid phase extraction/sample injection system (Agilent) coupled with API4000 triple quadrupole mass spectrometer (AB Sciex) were used for sample analysis. The mobile phase composed of acetonitrile and water supplemented with 0.1% formic acid. A C4 solid phase extraction cartridge is used for sample separation. MS detection is achieved in positive ion MRM mode.
Peak areas for substrate, metabolite and internal standard are determined using the RapidFire integrator software (version 3.6.12009.12296). Peak area ratios (PAR) of metabolite and internal standard (stable-labelled metabolite) are then calculated. The measurement window for each experiment is then defined:
PAR (0% activity)=average PAR for all incubations containing concentrated inhibitor; Par (100% activity)=average PAR for all incubations containing no inhibitor (DMSO controls); % Activity (test inhibitor)=[PAR (test inhibitor)−PAR (0% activity)]/[PAR (100% activity)−PAR (0% activity)]; % Inhibition (test inhibitor)=100-% Activity (test inhibitor).
A general note: Microsomes from liver hold many membrane-bound enzymes, among them those of drug oxidation.

For another series, the target named is T2, hERG channel (Homo sapiens, UniProt Q12809).
T2 construct: expressed in transfected cells; host or cells: CHO (Chinese hamster ovary)
T2 sequence (Q12809 whole entry): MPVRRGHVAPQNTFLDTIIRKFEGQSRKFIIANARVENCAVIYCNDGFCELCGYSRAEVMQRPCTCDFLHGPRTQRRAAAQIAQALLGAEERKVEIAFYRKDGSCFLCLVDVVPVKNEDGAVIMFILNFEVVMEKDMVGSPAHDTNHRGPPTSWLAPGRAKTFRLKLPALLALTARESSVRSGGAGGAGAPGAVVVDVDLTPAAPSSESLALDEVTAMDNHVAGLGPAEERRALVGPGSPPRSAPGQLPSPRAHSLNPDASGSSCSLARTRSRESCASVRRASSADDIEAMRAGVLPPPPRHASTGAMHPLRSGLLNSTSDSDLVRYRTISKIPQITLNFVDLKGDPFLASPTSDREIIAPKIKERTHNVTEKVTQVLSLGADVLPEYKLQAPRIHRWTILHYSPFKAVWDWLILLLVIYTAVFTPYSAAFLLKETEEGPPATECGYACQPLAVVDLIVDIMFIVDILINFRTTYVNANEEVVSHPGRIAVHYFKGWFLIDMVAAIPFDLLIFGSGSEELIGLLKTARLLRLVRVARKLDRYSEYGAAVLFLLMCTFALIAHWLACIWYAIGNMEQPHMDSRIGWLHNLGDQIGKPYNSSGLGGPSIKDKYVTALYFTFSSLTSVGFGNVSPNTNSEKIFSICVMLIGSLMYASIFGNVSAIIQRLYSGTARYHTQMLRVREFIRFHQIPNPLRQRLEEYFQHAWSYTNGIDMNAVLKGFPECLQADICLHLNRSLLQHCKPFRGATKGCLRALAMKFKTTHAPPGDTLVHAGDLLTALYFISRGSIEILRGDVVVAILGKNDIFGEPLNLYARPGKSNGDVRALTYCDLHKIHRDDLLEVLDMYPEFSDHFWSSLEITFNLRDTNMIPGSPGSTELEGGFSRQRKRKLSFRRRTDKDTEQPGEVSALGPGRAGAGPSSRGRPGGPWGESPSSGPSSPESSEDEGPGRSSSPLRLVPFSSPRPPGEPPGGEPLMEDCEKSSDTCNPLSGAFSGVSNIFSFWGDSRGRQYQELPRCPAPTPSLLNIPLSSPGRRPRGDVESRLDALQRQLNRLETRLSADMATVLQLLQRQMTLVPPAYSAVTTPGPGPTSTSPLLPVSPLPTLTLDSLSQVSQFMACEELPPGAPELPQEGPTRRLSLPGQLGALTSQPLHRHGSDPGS
Put plainly: hERG channel inhibition assay (patch-clamp, CHOhERG cells). The conditions noted are these: for IC20: human, CHO cells stably expressing hERG (CHOhERG); for IC20 / IC50: patch-clamp, CHOhERG cells; for hERG IC20/TLR7 IC50 / hERG IC20/TLR8 IC50 / hERG IC20/TLR9 IC50: safety ratio. Format: cell-based. In a few lines: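 Whole-cell voltage-clamp recordings used CHO cells stably expressing human hERG, with IKhERG evoked by a voltage protocol at 0.1 Hz. Increasing compound concentrations were applied, each for 3–10 min to reach steady state, and current amplitude and kinetics were expressed relative to control (100%).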
For orientation: Block of hERG is tested as a sign of cardiac risk.

A word on the inhibition: it is the relative decrease from the control value, in per cent. As usually defined, the IC20 is the point of the concentration-response curve where the effect stands at 20%. The low end stands for an effect from little substance, the high end for a need for much substance. What is called IC50 is the point on the concentration scale where inhibition reaches its midpoint. A high value points to a need for much substance.

T1 sequence (P11712 whole entry): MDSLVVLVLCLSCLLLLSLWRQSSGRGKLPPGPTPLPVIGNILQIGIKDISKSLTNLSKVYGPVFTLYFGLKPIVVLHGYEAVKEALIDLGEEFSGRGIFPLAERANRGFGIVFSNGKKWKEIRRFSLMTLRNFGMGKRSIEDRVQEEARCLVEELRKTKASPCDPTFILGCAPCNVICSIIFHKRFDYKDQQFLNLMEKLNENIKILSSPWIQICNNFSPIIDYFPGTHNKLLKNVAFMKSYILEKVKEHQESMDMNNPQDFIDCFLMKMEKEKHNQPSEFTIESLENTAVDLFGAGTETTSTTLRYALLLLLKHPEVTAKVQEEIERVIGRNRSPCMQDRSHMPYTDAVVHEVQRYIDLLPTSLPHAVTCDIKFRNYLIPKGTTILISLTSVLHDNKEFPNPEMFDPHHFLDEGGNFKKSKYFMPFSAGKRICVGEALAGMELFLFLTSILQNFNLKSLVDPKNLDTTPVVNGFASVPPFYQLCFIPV

As to `Cc1cc(N2CCNCC2)nc(N2CCN(C[C@H]3CN(c4ccc(C#N)c5nccnc45)C[C@@H](C)O3)CC2)n1` [Example 114, 8-[(2R,6S)-2-methyl-6-[[4-(4-methyl-6-piperazin-1-yl-pyrimidin-2-yl)piperazin-1-yl]methyl]morpholin-4-yl]quinoxaline-5-carbonitrile], the inhibition at 5 min, 10 µM against CYP2C9 was found to be 7.5%. Moreover, on hERG channel, the 20% effect concentration (IC20) was above 10 µM, the 50% inhibitory concentration (IC50) was above 20 µM, the “hERG IC20/TLR7 IC50” value is given as above 3333 and the “hERG IC20/TLR8 IC50” value is recorded as above 10000. For the same molecule, the “hERG IC20/TLR9 IC50” value at hERG channel is given as above 161.
For `[2H]c1ccc2c(N3C[C@H](CN4CCN(c5ccc(N6C[C@@H](N)[C@H](OC)C6)nc5)CC4)O[C@H](C)C3)ccc(C#N)c2n1` [Example 143, 5-[(2S,6R)-2-[[4-[6-[(3R,4R)-3-amino-4-methoxy-pyrrolidin-1-yl]-3-pyridyl]piperazin-1-yl]methyl]-6-methyl-morpholin-4-yl]-2-deuterio-quinoline-8-carbonitrile], the inhibition at 5 min, 10 µM on CYP2C9 is -9.5%. At hERG channel, the IC20 is above 10 µM, the IC50 was above 20 µM, the “hERG IC20/TLR7 IC50” value was above 476 and the “hERG IC20/TLR8 IC50” value is on record as above 1250. For the same molecule, on hERG channel, the “hERG IC20/TLR9 IC50” value is on record as above 212.
As for `C[C@@H]1CN(c2ccc(C#N)c3ncccc23)C[C@H](CN2CCN(c3ccnc(N4C[C@H](N)[C@@H](F)C4)n3)CC2)O1` [Example 110, 5-[(2S,6R)-2-[[4-[2-[(3S,4S)-3-amino-4-fluoro-pyrrolidin-1-yl]pyrimidin-4-yl]piperazin-1-yl]methyl]-6-methyl-morpholin-4-yl]quinoline-8-carbonitrile], at CYP2C9, the inhibition at 5 min, 10 µM worked out at 22%.
Regarding `CO[C@@H]1CN(c2ccc(N3CCN(C[C@H]4CN(c5ccc(C#N)n6ncc(F)c56)C[C@@H](C)O4)CC3)cn2)C[C@H]1N` [Example 166, 4-[(2S,6R)-2-[[4-[6-[(3R,4R)-3-amino-4-methoxy-pyrrolidin-1-yl]-3-pyridyl]piperazin-1-yl]methyl]-6-methyl-morpholin-4-yl]-3-fluoro-pyrazolo[1,5-a]pyridine-7-carbonitrile], the inhibition at 5 min, 10 µM on CYP2C9 is -3.5%. For the same molecule, on hERG channel, the IC20 was determined as 8 µM, the IC50 was above 20 µM, the “hERG IC20/TLR7 IC50” value stood at 380 and the “hERG IC20/TLR8 IC50” value is 258. In addition, the “hERG IC20/TLR9 IC50” value on hERG channel is 173.
In the case of `[2H]c1nc2c(C#N)ccc(N3C[C@H](CN4CCN(c5nc(C)cc(N6CC(N)C6)n5)CC4)O[C@H](C)C3)c2nc1[2H]` [Example 124, 8-[(2S,6R)-2-[[4-[4-(3-aminoazetidin-1-yl)-6-methyl-pyrimidin-2-yl]piperazin-1-yl]methyl]-6-methyl-morpholin-4-yl]-2,3-dideuterio-quinoxaline-5-carbonitrile], the inhibition at 5 min, 10 µM at CYP2C9 was -2%. At hERG channel, the IC20 is above 10 µM, the half-maximal inhibitory concentration (IC50) was above 20 µM, the “hERG IC20/TLR7 IC50” value is on record as above 2000 and the “hERG IC20/TLR8 IC50” value is above 10000. In addition, the “hERG IC20/TLR9 IC50” value at hERG channel is given as above 322.
Take `CO[C@H]1CN(c2cc(C)nc(N3CCN(C[C@H]4CN(c5ccc(C#N)c6nccnc56)C[C@@H](C)O4)CC3)n2)C[C@@H]1N` [Example 104, 8-[(2S,6R)-2-[[4-[4-[(3S,4S)-3-amino-4-methoxy-pyrrolidin-1-yl]-6-methyl-pyrimidin-2-yl]piperazin-1-yl]methyl]-6-methyl-morpholin-4-yl]quinoxaline-5-carbonitrile]: the inhibition at 5 min, 10 µM on CYP2C9 is -1%. Besides, on hERG channel, the IC20 was above 10 µM, the concentration for half-maximal inhibition (IC50) was above 20 µM, the “hERG IC20/TLR7 IC50” value was above 454 and the “hERG IC20/TLR8 IC50” value is above 10000. For the same molecule, the “hERG IC20/TLR9 IC50” value on hERG channel is above 142.
With `C[C@@H]1CN(c2ccc(C#N)c3ncccc23)C[C@H](CN2CC(c3ccc(N4CCNCC4)cc3)C2)O1` [Example 3, 5-[(2R,6S)-2-methyl-6-[[3-(4-piperazin-1-ylphenyl)azetidin-1-yl]methyl]morpholin-4-yl]quinoline-8-carbonitrile], the inhibition at 5 min, 10 µM against CYP2C9 was -18%.
Same read-out and setting: the value for `[2H]c1ccc2c(N3C[C@H](CN4CCN(c5ccc(N[C@H]6CNC[C@H]6F)nc5)CC4)O[C@H](C)C3)ccc(C#N)c2n1` [Example 162, 2-deuterio-5-[(2S,6R)-2-[[4-[6-[[(3S,4R)-4-fluoropyrrolidin-3-yl]amino]-3-pyridyl]piperazin-1-yl]methyl]-6-methyl-morpholin-4-yl]quinoline-8-carbonitrile] was -2.5%; that for `CO[C@H]1CN(c2nc(C)cc(N3CCN(C[C@H]4CN(c5ccc(C#N)c6nccnc56)C[C@@H](C)O4)CC3)n2)C[C@@H]1N` [Example 106, 8-[(2S,6R)-2-[[4-[2-[(3S,4S)-3-amino-4-methoxy-pyrrolidin-1-yl]-6-methyl-pyrimidin-4-yl]piperazin-1-yl]methyl]-6-methyl-morpholin-4-yl]quinoxaline-5-carbonitrile] was 17%.
`[2H]c1ccc2c(N3C[C@H](CN4CCN(c5ccc(N6CC(C)(N)C6)nc5)CC4)O[C@H](C)C3)ccc(C#N)c2n1` [Example 132, 5-[(2S,6R)-2-[[4-[6-(3-amino-3-methyl-azetidin-1-yl)-3-pyridyl]piperazin-1-yl]methyl]-6-methyl-morpholin-4-yl]-2-deuterio-quinoline-8-carbonitrile]: at CYP2C9, the inhibition at 5 min, 10 µM is -1%. For the same molecule, on hERG channel, the IC20 is above 10 µM, the half-inhibitory concentration (IC50) was above 20 µM, the “hERG IC20/TLR7 IC50” value was above 434 and the “hERG IC20/TLR8 IC50” value is listed as above 625. For the same molecule, at hERG channel, the “hERG IC20/TLR9 IC50” value is given as above 71.
Turning to `C[C@@H]1CN(c2ccc(C#N)n3ncc(F)c23)C[C@H](CN2CCN(c3ccc(N4CC(C)(N)C4)nc3)CC2)O1` [Example 154, 4-[(2S,6R)-2-[[4-[6-(3-amino-3-methyl-azetidin-1-yl)-3-pyridyl]piperazin-1-yl]methyl]-6-methyl-morpholin-4-yl]-3-fluoro-pyrazolo[1,5-a]pyridine-7-carbonitrile], at CYP2C9, the inhibition at 5 min, 10 µM was 2.5%. Also, at hERG channel, the IC20 is above 10 µM, the IC50 was above 20 µM, the “hERG IC20/TLR7 IC50” value was above 312 and the “hERG IC20/TLR8 IC50” value is listed as above 200. Moreover, at hERG channel, the “hERG IC20/TLR9 IC50” value was above 89.
In the case of `C[C@@H]1CN(c2ccc(C#N)c3nccnc23)C[C@H](CN2CCN(c3nccc(N4C[C@@H](N)[C@H](F)C4)n3)CC2)O1` [Example 119, 8-[(2S,6R)-2-[[4-[4-[(3R,4R)-3-amino-4-fluoro-pyrrolidin-1-yl]pyrimidin-2-yl]piperazin-1-yl]methyl]-6-methyl-morpholin-4-yl]quinoxaline-5-carbonitrile], at CYP2C9, the inhibition at 5 min, 10 µM is -12.5%.
Same read-out and setting: the value for `C[C@@H]1CN(c2ccc(C#N)c3ncccc23)C[C@H](CN2CCC(c3cccc(N4CCNCC4)c3)C2)O1` (stereo partly drawn) [Example 1, 5-[(2R,6S)-2-methyl-6-[[3-(3-piperazin-1-ylphenyl)pyrrolidin-1-yl]methyl]morpholin-4-yl]quinoline-8-carbonitrile] was -7%.
On the same count and under the same terms, the value for `C[C@@H]1CN(c2ccc(C#N)c3nccnc23)C[C@H](CN2CCN(c3ccnc(N4C[C@H](N)[C@@H](F)C4)n3)CC2)O1` [Example 107, 8-[(2S,6R)-2-[[4-[2-[(3S,4S)-3-amino-4-fluoro-pyrrolidin-1-yl]pyrimidin-4-yl]piperazin-1-yl]methyl]-6-methyl-morpholin-4-yl]quinoxaline-5-carbonitrile] was 19.5%.
